Test results: patent US20100267697A1, “ION CHANNEL MODULATORS” (Wyeth, priority 2006, published 2010)
Read-outs that look alike come from different tables or passages of the source.

Key:
Cav2.2 [1] = molecular target: Cav2.2 (UniProt Q02294); assay: Oocyte assay (Xenopus oocyte heterologous expression, current at fifth pulse P5); format: cell-based; conditions: Xenopus oocytes; fifth pulse (P5) of 5 Hz train, holding potential −100 mV
Experimental: The assay was performed on various calcium channels (e.g., Cav2.2 subfamily) whereby the modulation of the calcium channel was measured for each tested compound.

Cav2.2 [2] = molecular target: T1, Cav2.2 (Homo sapiens, UniProt Q00975); assay: HEK assay (whole-cell patch clamp, transiently transfected HEK-293T/17 cells, pulses P1 and P5); format: cell-based; conditions: holding potential −100 mV
T1 construct: expressed in transfected cells; host or cells: HEK-293T/17 (transient, FuGENE 6)
Summary of the method: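 Whole-cell voltage clamp of HEK-293T/17 cells transiently transfected via FuGENE 6, then grown 24 h in 1% serum before recording. From −100 mV holding, trains of five 20–30 ms steps to about +10 mV at 5 Hz, repeated every 30 s; steady-state IC50s taken at first (P1) and fifth (P5) pulses to gauge use-dependent block.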

[3] = fifth pulse (P5) of 5 Hz train, read-out: HEK Cav2.2 P5 IC50
[4] = first pulse (P1) of 5 Hz train, read-out: HEK Cav2.2 P1 IC50

T1 sequence (Q00975 whole entry): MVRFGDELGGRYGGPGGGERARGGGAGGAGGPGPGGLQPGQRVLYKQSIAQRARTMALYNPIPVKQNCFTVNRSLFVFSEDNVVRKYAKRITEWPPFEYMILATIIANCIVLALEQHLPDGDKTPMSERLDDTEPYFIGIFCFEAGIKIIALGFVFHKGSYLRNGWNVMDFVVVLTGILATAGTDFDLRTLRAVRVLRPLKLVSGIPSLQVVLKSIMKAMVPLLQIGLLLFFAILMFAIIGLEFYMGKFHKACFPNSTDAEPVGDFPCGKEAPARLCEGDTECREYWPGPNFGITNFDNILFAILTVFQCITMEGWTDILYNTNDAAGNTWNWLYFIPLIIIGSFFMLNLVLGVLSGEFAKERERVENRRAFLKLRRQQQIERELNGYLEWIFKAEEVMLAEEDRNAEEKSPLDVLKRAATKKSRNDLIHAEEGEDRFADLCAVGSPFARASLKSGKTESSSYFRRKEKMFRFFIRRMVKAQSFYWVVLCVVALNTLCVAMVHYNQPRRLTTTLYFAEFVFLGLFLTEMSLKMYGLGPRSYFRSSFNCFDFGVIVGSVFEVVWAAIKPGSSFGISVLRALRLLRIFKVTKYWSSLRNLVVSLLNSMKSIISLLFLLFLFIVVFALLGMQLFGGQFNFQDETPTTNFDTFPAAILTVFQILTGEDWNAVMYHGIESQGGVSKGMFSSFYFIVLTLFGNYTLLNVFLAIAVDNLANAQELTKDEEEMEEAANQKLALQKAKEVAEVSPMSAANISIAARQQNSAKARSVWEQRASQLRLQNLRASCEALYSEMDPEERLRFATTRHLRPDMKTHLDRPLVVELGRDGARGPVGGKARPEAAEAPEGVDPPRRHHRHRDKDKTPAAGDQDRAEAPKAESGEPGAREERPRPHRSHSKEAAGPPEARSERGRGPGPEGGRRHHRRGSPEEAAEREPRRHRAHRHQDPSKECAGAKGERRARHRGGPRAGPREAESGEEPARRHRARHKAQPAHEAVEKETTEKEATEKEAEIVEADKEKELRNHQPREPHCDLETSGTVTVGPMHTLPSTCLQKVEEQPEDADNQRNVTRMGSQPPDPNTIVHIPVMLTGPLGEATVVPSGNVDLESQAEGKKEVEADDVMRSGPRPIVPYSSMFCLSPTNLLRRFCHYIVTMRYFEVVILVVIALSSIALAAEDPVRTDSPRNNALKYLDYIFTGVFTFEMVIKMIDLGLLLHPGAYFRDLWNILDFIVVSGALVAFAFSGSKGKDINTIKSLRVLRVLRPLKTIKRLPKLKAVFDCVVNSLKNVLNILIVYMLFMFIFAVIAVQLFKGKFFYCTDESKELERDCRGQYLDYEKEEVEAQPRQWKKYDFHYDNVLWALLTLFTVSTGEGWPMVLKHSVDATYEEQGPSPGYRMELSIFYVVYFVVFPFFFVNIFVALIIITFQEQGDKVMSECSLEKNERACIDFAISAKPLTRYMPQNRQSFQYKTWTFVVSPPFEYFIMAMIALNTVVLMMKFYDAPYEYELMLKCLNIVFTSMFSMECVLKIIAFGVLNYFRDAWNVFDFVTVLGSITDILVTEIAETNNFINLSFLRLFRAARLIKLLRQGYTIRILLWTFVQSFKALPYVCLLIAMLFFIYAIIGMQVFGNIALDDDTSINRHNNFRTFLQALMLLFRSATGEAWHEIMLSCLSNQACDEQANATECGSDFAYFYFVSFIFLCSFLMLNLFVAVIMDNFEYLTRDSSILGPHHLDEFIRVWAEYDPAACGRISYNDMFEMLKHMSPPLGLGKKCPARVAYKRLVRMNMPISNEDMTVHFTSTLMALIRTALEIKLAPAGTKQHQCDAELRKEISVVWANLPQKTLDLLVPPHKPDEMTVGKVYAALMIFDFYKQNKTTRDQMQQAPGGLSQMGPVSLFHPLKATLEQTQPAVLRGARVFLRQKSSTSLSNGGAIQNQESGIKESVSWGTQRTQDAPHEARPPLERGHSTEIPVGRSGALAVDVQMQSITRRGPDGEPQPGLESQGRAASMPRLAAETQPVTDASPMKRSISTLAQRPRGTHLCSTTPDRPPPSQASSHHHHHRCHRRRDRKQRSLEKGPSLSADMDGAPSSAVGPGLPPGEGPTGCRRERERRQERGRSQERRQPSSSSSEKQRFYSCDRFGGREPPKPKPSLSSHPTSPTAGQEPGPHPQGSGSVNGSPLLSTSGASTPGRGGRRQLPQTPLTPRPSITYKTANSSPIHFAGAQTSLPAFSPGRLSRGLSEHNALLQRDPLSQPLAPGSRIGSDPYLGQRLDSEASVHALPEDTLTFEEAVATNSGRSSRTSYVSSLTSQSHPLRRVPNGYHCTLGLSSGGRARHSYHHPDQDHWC
T1 sequence (P54284 whole entry partner): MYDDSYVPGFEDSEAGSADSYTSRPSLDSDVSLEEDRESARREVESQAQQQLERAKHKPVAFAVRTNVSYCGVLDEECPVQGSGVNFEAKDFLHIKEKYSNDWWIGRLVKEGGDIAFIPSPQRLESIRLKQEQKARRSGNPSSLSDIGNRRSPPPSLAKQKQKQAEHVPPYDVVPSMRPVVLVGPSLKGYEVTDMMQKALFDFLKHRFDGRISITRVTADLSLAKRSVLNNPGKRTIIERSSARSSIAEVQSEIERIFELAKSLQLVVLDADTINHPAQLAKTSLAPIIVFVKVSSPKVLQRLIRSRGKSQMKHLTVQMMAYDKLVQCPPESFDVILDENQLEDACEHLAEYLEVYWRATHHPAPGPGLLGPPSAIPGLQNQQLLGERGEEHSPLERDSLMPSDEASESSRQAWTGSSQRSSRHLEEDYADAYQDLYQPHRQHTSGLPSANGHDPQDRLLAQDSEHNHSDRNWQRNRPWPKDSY
T1 sequence (P54289 25-946 partner limits assumed): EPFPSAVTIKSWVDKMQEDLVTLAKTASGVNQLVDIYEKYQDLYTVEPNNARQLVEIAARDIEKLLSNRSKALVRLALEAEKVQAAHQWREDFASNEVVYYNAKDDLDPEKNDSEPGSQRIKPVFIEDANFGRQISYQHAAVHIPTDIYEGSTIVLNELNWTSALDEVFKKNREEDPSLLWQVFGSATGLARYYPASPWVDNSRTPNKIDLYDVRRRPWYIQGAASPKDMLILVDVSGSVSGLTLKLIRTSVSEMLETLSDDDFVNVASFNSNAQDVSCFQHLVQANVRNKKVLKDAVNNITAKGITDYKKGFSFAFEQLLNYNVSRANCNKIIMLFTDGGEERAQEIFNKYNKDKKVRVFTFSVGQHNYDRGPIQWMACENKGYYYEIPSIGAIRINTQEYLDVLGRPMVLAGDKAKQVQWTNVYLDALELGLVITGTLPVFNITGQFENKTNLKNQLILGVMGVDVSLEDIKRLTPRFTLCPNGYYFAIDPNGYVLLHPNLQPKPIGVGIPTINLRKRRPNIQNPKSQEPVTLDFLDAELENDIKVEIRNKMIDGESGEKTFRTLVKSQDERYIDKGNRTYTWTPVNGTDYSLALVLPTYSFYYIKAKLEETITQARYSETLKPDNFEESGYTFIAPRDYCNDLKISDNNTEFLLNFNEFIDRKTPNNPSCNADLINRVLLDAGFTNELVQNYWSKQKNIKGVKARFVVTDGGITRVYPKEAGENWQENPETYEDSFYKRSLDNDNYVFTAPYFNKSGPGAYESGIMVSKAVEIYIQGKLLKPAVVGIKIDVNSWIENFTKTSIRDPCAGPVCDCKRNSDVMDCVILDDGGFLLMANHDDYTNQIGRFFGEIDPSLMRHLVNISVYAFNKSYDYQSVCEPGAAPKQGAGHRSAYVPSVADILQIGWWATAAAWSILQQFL
T1 sequence (P54289 947-1103 partner limits assumed): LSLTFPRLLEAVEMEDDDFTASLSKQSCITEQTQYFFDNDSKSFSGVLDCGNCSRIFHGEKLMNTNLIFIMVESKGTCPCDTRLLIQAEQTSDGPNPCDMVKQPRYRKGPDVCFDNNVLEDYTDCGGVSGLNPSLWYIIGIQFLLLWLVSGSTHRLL

| IC50 (Cav2.2 [1]) [µM] | IC50 (Cav2.2 [2]; [3]) [µM] | IC50 (Cav2.2 [2]; [4]) [µM] | Compound |
| --- | --- | --- | --- |
| 23.6 | 2.7 | 18.9 | CC(C)c1ccccc1N(Cc1ccc(N2CCN(C)CC2)nc1)C(=O)C(C)(C)C [Compound 30, N-(2-Isopropyl-phenyl)-2,2-dimethyl-N-[6-(4-methyl-piperazin-1-yl)-pyridin-3-ylmethyl]-propionamide] |
| 6.6 | 1.3 | 5.5 | CCN(CC)c1ccc(CN(C(=O)C(C)(C)CC)c2ccc(F)cc2)cn1 [Compound 31, N-(6-Diethylamino-pyridin-3-ylmethyl)-N-(4-fluorophenyl)-2,2-dimethyl-butyramide] |
| 21.2 | 2.6 | 24.5 | Cc1cc(C)cc(N(Cc2ccc(N3CCN(C)CC3)nc2)C(=O)C(C)(C)C)c1 [Compound 32, N-(3,5-dimethylphenyl)-2,2-dimethyl-N-[6-(4-methyl-piperazin-1-yl)-pyridin-3-ylmethyl]-propionamide] |
| 22.9 | 11.5 | 37.6 | CC(C)(C)C(=O)N(Cc1ccc(N2CCC(N3CCOCC3)CC2)nc1)c1ccc(F)cc1 [Compound 33, N-(4-Fluorophenyl)-2,2-dimethyl-N-(4-morpholin-4-yl-3,4,5,6-tetrahydro-2H-[1,2′]bipyridinyl-5′-ylmethyl)-propionamide] |
| 19.6 | 2.4 | 5.5 | CC(C)(C)C(=O)N(Cc1ccc(N2CCC(N3CCCC3)CC2)nc1)c1ccc(F)cc1 [Compound 34, N-(4-Fluorophenyl)-2,2-dimethyl-N-(4-pyrrolidin-1-yl-3,4,5,6-tetrahydro-2H-[1,2′]bipyridinyl-5′-ylmethyl)-propionamide] |
| 13.2 | 1.4 | 4.4 | CCC(C)(C)C(=O)N(Cc1ccc(N2CCN(C)CC2)nc1)c1ccccc1C(C)C [Compound 35, N-(2-Isopropyl-phenyl)-2,2-dimethyl-N-[6-(4-methyl-piperazin-1-yl)-pyridin-3-ylmethyl]-butyramide] |
| 18.3 | 2.4 | 6 | CCN(CC)c1nc(CN(C(=O)C(C)(C)C)c2ccc(F)cc2)cs1 [Compound 64, N-(2-Diethylamino-thiazol-4-ylmethyl)-N-(4-fluorophenyl)-2,2-dimethyl-propionamide] |
| 9.8 | 1.9 | 12.1 | CC(C)(C)C(=O)N(Cc1ccc(N2CCCCC2)nc1)c1ccc(F)cc1 [Compound 70, N-(4-Fluorophenyl)-2,2-dimethyl-N-(3,4,5,6-tetrahydro-2H-[1,2′]bipyridinyl-5′-ylmethyl)-propionamide] |
| 1.7 | 0.6 | 2 | CN(C)c1ccc(N(Cc2csc(N(C)c3ccc(F)cc3)n2)C(=O)C(C)(C)C)cc1 [Compound 81, N-(4-Dimethylamino-phenyl)-N-{2-[(4-fluorophenyl)-methyl-amino]-thiazol-4-ylmethyl}-2,2-dimethyl-propionamide] |
| 7.1 | 1 | 3.3 | CCN(c1nc(CN(C(=O)C(C)(C)C)c2ccc(F)cc2)cs1)C1CC1 [Compound 83, N-[2-(Cyclopropyl(ethyl)amino)-thiazol-4-ylmethyl]-N-(4-fluorophenyl)-2,2-dimethyl-propionamide] |
| 15.6 | 1.2 | 4.3 | CCN(CC)c1ncc(CN(C(=O)C(C)(C)C)c2ccc(F)cc2)cn1 [Compound 84, N-(2-Diethylamino-pyrimidin-5-ylmethyl)-N-(4-fluorophenyl)-2,2-dimethyl-propionamide] |
| 16.2 | 1.9 | 7.4 | CN(C)c1ccc(N(Cc2cnc(N3CCCCC3)nc2)C(=O)C(C)(C)C)cc1 [Compound 85, N-(4-Dimethylamino-phenyl)-2,2-dimethyl-N-(2-piperidin-1-yl-pyrimidin-5-ylmethyl)-propionamide] |
| 22.8 | 0.4 | 0.8 | CN(c1ccccn1)c1nc(CN(C(=O)C(C)(C)C)c2ccc(F)cc2)cs1 [Compound 93, N-(4-Fluorophenyl)-2,2-dimethyl-N-[2-(methyl-pyridin-2-yl-amino)-thiazol-4-ylmethyl]-propionamide] |
| 22 | 2.5 | 14.1 | CN1CCN(c2ccc(CN(C(=O)C3CCCCC3)c3ccc(F)cc3)cn2)CC1 [Compound 104, Cyclohexanecarboxylic acid (4-fluorophenyl)-[6-(4-methyl-piperazin-1-yl)-pyridin-3-ylmethyl]-amide] |
| 23.2 | 2.1 | 18.6 | O=C(C1CCOC1)N(Cc1ccc(N2CCN(c3ccccn3)CC2)nc1)c1ccc(F)cc1 (stereo not drawn) [Compound 111, Tetrahydro-furan-3-carboxylic acid (4-fluorophenyl)-[6-(4-pyridin-2-yl-piperazin-1-yl)-pyridin-3-ylmethyl]-amide] |
